One assay concerns the target T1, mTORC1 (Homo sapiens, UniProt P42345+P62942).
T1 construct: endogenous in cells; host or cells: PC3 cells (human prostate adenocarcinoma)
Description: Inhibition assay for mTORC1: phosphorylation of pS6K at Thr389, AlphaLISA in PC3 cells. Format: cell-based. Conditions: for IC50: read-out: pIC50 mTORC1 (converted). Here is the method: (§1) The IC50s of the inhibition of mTORC1 and mTORC2 were determined in vitro by determining the phosphorylation of pS6K at position Thr389 (mTORC1 inhibition) and pAkt at Ser473 (mTORC2 inhibition). In vitro studies were performed with AlphaLISA® technology using PC3 cells (Prostate Adenocarcinoma; Human (Homo sapiens)). The cells were seeded in 96 well plates and were treated for 24 hours with the different compounds. […] All analysis were performed using GraphPad Prism 7.0 (GraphPad Software, San Diego, USA).
(In general: Alpha assays give light when donor and acceptor beads are brought close together.)

The target in a further assay is T2, mTORC2 (Homo sapiens, UniProt P42345+P62942).
T2 construct: endogenous in cells; host or cells: PC3 cells (human prostate adenocarcinoma)
The assay can be described thus: Inhibition assay for mTORC2: phosphorylation of pAkt at Ser473, AlphaLISA in PC3 cells. The note with it: for IC50: read-out: pIC50 mTORC2 (converted). The assay is classed as cell-based. The method, then: as §1

[1] abbreviates: PC3 cells, treated 24 hours, pS6K Thr389, AlphaLISA, C16 diastereomer mixtures not separated.
The mark [2] stands for this setting: PC3 cells, treated 24 hours, pAkt Ser473, AlphaLISA, C16 diastereomer mixtures not separated.

Where two headings read alike, the source gives them in different places.

The record followed here is US11702429B2, “mTORC modulators and uses thereof” (Aeovian Pharmaceuticals, Inc., priority 2019, dated 2023).

T2 sequence (P62942 2-108 limits assumed, other chains not shown): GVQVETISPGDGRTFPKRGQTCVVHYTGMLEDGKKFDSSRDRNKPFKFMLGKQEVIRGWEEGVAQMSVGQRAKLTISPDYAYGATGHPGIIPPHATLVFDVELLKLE

Take `COC1C[C@@H]2CC[C@@H](C)[C@@](O)(O2)C(=O)C(=O)N2CCCCC2C(=O)O[C@H]([C@H](C)C[C@@H]2CC[C@@H](OCCN3CCOCC3)[C@H](OC)C2)CC(=O)[C@H](C)/C=C(\C)[C@@H](O)[C@@H](OC)C(=O)[C@H](C)C[C@H](C)/C=C/C=C/C=C/1C` (stereo partly shown) [Compound 325]: the results for the IC50 on mTORC1 and on mTORC2 were under 0.316 nM and under 1000 nM, respectively.

On to `COCCOC1C[C@@H]2CC[C@@H](C)[C@@](O)(O2)C(=O)C(=O)N2CCCC[C@H]2C(=O)O[C@H]([C@H](C)C[C@@H]2CC[C@@H](OCCCN3CCN(C(C)C)CC3)[C@H](OC)C2)CC(=O)[C@H](C)/C=C(\C)[C@@H](O)[C@@H](OC)C(=O)[C@H](C)C[C@H](C)/C=C/C=C/C=C/1C` (mixture of isomers) [Compound 39], for which the IC50 was under 0.316 nM at mTORC1 (setting [1]) and 1000 to 10000 nM on mTORC2 (setting [2]).

For `COC1C[C@@H]2CC[C@@H](C)[C@@](O)(O2)C(=O)C(=O)N2CCCCC2C(=O)O[C@H]([C@H](C)C[C@@H]2CC[C@@H](OC(=O)CN(C)C)[C@H](OC)C2)CC(=O)[C@H](C)/C=C(\C)[C@@H](O)[C@@H](OC)C(=O)[C@H](C)C[C@H](C)/C=C/C=C/C=C/1C` (stereo partly shown) [Compound 343], the values for the IC50 at mTORC1 and on mTORC2 were under 0.316 nM and under 1000 nM, respectively.

For `CO[C@@H]1C[C@H](C[C@@H](C)[C@@H]2CC(=O)[C@H](C)/C=C(\C)[C@@H](O)[C@@H](OC)C(=O)[C@H](C)C[C@H](C)/C=C/C=C/C=C(\C)C(OCCO)C[C@@H]3CC[C@@H](C)[C@@](O)(O3)C(=O)C(=O)N3CCCCC3C(=O)O2)CC[C@H]1OCCCN1CCO[C@H](C)C1` (stereo partly shown) [Compound 43], the “pIC50 mTORC1” value at mTORC1 (setting [1]) is recorded as “A (pIC50 for mTORC1 of >9.5 as A)”. Also, on mTORC2 (setting [2]), the “pIC50 mTORC2” value was “B (5 to 6 as B)”.

Take `CO[C@@H]1C[C@H](C[C@@H](C)[C@@H]2CC(=O)[C@H](C)/C=C(\C)[C@@H](O)[C@@H](OC)C(=O)[C@H](C)C[C@H](C)/C=C/C=C/C=C(\C)C(OCc3ccccc3)C[C@@H]3CC[C@@H](C)[C@@](O)(O3)C(=O)C(=O)N3CCCCC3C(=O)O2)CC[C@H]1O` (stereo partly shown) [Compound 205]: the IC50 on mTORC1 is under 0.316 nM; at mTORC2 it was under 1000 nM.

In the case of `CO[C@H](COC1C[C@@H]2CC[C@@H](C)[C@@](O)(O2)C(=O)C(=O)N2CCCCC2C(=O)O[C@H]([C@H](C)C[C@@H]2CC[C@@H](O)[C@H](OC)C2)CC(=O)[C@H](C)/C=C(\C)[C@@H](O)[C@@H](OC)C(=O)[C@H](C)C[C@H](C)/C=C/C=C/C=C/1C)c1ccccc1` (stereo partly shown) [Compound 206], the results for the IC50 on mTORC1 and on mTORC2 were 0.316 to 3.16 nM and 1000 to 10000 nM, respectively.

For the compound `COC1CC2CCC(C)C(O)(O2)C(=O)C(=O)N2CCCCC2C(=O)OC(C(C)CC2CCC(OCCCN3CCCC(O)C3)C(OC)C2)CC(=O)C(C)C=C(C)C(O)C(OC)C(=O)C(C)CC(C)C=CC=CC=C1C` (stereo not shown) [Compound 340], the IC50 at mTORC1 was under 0.316 nM; at mTORC2, under 1000 nM.

`CO[C@@H]1C[C@H](C[C@@H](C)[C@@H]2CC(=O)[C@H](C)/C=C(\C)[C@@H](O)[C@@H](OC)C(=O)[C@H](C)C[C@H](C)/C=C/C=C/C=C(\C)C(OCC3CCOCC3)C[C@@H]3CC[C@@H](C)[C@@](O)(O3)C(=O)C(=O)N3CCCCC3C(=O)O2)CC[C@H]1O` (stereo partly shown) [Compound 226]: the values for the IC50 on mTORC1 and on mTORC2 were 0.316 to 3.16 nM and over 10000 nM, respectively.

With `CO[C@@H]1C[C@H](C[C@@H](C)[C@@H]2CC(=O)[C@H](C)/C=C(\C)[C@@H](O)[C@@H](OC)C(=O)[C@H](C)C[C@H](C)/C=C/C=C/C=C(\C)C(OCCO)C[C@@H]3CC[C@@H](C)[C@@](O)(O3)C(=O)C(=O)N3CCCC[C@H]3C(=O)O2)CC[C@H]1OCCCN1CC2(COC2)C1` (mixture of isomers) [Compound 78], the IC50 is 0.316 to 3.16 nM on mTORC1 (setting [1]) and over 10000 nM at mTORC2 (setting [2]).

In the case of `CO[C@@H]1C[C@H](C[C@@H](C)[C@@H]2CC(=O)[C@H](C)/C=C(\C)[C@@H](O)[C@@H](OC)C(=O)[C@H](C)C[C@H](C)/C=C/C=C/C=C(\C)C(c3cccn3C)C[C@@H]3CC[C@@H](C)[C@@](O)(O3)C(=O)C(=O)N3CCCCC3C(=O)O2)CC[C@H]1O` (stereo partly shown) [Compound 212], the IC50 on mTORC1 is 0.316 to 3.16 nM; at mTORC2, 1000 to 10000 nM.

With `COCCO[C@@H]1CC[C@@H](C[C@@H](C)[C@@H]2CC(=O)[C@H](C)/C=C(\C)[C@@H](O)[C@@H](OC)C(=O)[C@H](C)C[C@H](C)/C=C/C=C/C=C(\C)C(OC)C[C@@H]3CC[C@@H](C)[C@@](O)(O3)C(=O)C(=O)N3CCCCC3C(=O)O2)C[C@H]1OC` (stereo partly drawn) [Compound 315, (1R,9S,12S,15R,16E,18R,19R,21R,23S,24E,26E,28E,30S,32S,35R)-1,18-dihydroxy-19,30-dimethoxy-12-[(1R)-2-[(1S,3R,4R)-3-methoxy-4-(2-methoxyethoxy)cyclohexyl]-1-methyl-ethyl]-15,17,21,23,29,35-hexamethyl-11,36-dioxa-4-azatricyclo[30.3.1.0^4,9]hexatriaconta-16,24,26,28-tetraene-2,3,10,14,20-pentone], the IC50 at mTORC1 is under 0.316 nM; on mTORC2, under 1000 nM.

Consider `COC1C[C@@H]2CC[C@@H](C)[C@@](O)(O2)C(=O)C(=O)N2CCCCC2C(=O)O[C@H]([C@H](C)C[C@@H]2CC[C@@H](OC(=O)N(C)CCCO)[C@H](OC)C2)CC(=O)[C@H](C)/C=C(\C)[C@@H](O)[C@@H](OC)C(=O)[C@H](C)C[C@H](C)/C=C/C=C/C=C/1C` (stereo partly shown) [Compound 338], for which the IC50 was under 0.316 nM on mTORC1 and under 1000 nM at mTORC2.

As for `COC1C[C@@H]2CC[C@@H](C)[C@@](O)(O2)C(=O)C(=O)N2CCCCC2C(=O)O[C@H]([C@H](C)C[C@@H]2CC[C@@H](OCCCN3CCCCC3)[C@H](OC)C2)CC(=O)[C@H](C)/C=C(\C)[C@@H](O)[C@@H](OC)C(=O)[C@H](C)C[C@H](C)/C=C/C=C/C=C/1C` (stereo partly shown) [Compound 341], the IC50 at mTORC1 is under 0.316 nM; at mTORC2 it was under 1000 nM.

Turning to `CO[C@@H]1C[C@H](C[C@@H](C)[C@@H]2CC(=O)[C@H](C)/C=C(\C)[C@@H](O)[C@@H](OC)C(=O)[C@H](C)C[C@H](C)/C=C/C=C/C=C(\C)C(OCCO)C[C@@H]3CC[C@@H](C)[C@@](O)(O3)C(=O)C(=O)N3CCCCC3C(=O)O2)CC[C@H]1OCCCN1C[C@@H](C)O[C@@H](C)C1` (stereo partly shown) [Compound 18], the “pIC50 mTORC1” value at mTORC1 (setting [1]) is on record as “A (pIC50 for mTORC1 of >9.5 as A)”. The “pIC50 mTORC2” value at mTORC2 (setting [2]) is given as “A (PIC50 for mTORC2 of <5 as A)”.

For `CO[C@@H]1C[C@H](C[C@@H](C)[C@@H]2CC(=O)[C@H](C)/C=C(\C)[C@@H](O)[C@@H](OC)C(=O)[C@H](C)C[C@H](C)/C=C/C=C/C=C(\C)C(OC3COC3)C[C@@H]3CC[C@@H](C)[C@@](O)(O3)C(=O)C(=O)N3CCCCC3C(=O)O2)CC[C@H]1O` (stereo partly shown) [Compound 218], the IC50 was 0.316 to 3.16 nM at mTORC1 and over 10000 nM on mTORC2.

Regarding `COC1CC2CCC(C)C(O)(O2)C(=O)C(=O)N2CCCCC2C(=O)OC(C(C)CC2CCC(OCCCN3CCOC(C)C3)C(OC)C2)CC(=O)C(C)C=C(C)C(O)C(OC)C(=O)C(C)CC(C)C=CC=CC=C1C` (stereo not shown) [Compound 310], the IC50 on mTORC1 was under 0.316 nM; at mTORC2, under 1000 nM.

As to `COC1C[C@@H]2CC[C@@H](C)[C@@](O)(O2)C(=O)C(=O)N2CCCCC2C(=O)O[C@H]([C@H](C)C[C@@H]2CC[C@@H](OC(=O)N(C)CCN(C)C)[C@H](OC)C2)CC(=O)[C@H](C)/C=C(\C)[C@@H](O)[C@@H](OC)C(=O)[C@H](C)C[C@H](C)/C=C/C=C/C=C/1C` (stereo partly shown) [Compound 359], the IC50 on mTORC1 is under 0.316 nM; on mTORC2, under 1000 nM.
